Experiment: SAD study: cardiac safety (ECG, telemetry, QTcF prolongation)

CCC(=O)C(C[C@H](C)N(C)C)(c1ccccc1)c1ccccc1 [d-methadone]
QTcF Reading 1 (100 mg, subject 9056, 0.5 h): 415 ms
QTcF Reading 2 (100 mg, subject 9056, 0.5 h): 424 ms
QTcF Reading 3 (100 mg, subject 9056, 0.5 h): 436 ms
QTcF Average (100 mg, subject 9056, 2 h): 439 ms
QTcF Reading 1 (100 mg, subject 9056, 2 h): 445 ms
QTcF Reading 2 (100 mg, subject 9056, 2 h): 426 ms
QTcF Reading 3 (100 mg, subject 9056, 2 h): 446 ms
QTcF Average (100 mg, subject 9056, 3 h): 442 ms
QTcF Reading 1 (100 mg, subject 9056, 3 h): 453 ms
QTcF Reading 2 (100 mg, subject 9056, 3 h): 443 ms
QTcF Reading 3 (100 mg, subject 9056, 3 h): 429 ms
QTcF Average (100 mg, subject 9056, 5 h): 429 ms
QTcF Reading 1 (100 mg, subject 9056, 5 h): 419 ms
QTcF Reading 2 (100 mg, subject 9056, 5 h): 448 ms
QTcF Reading 3 (100 mg, subject 9056, 5 h): 419 ms
QTcF Average (100 mg, subject 9056, 8 h): 446 ms
QTcF Reading 1 (100 mg, subject 9056, 8 h): 436 ms
QTcF Reading 2 (100 mg, subject 9056, 8 h): 457 ms
QTcF Reading 3 (100 mg, subject 9056, 8 h): 444 ms
QTcF Average (100 mg, subject 9056, 24 h): 432 ms
QTcF Reading 1 (100 mg, subject 9056, 24 h): 432 ms
QTcF Reading 2 (100 mg, subject 9056, 24 h): 431 ms
QTcF Reading 3 (100 mg, subject 9056, 24 h): 434 ms
QTcF Average (100 mg, subject 9056, 48 h): 422 ms
QTcF Reading 1 (100 mg, subject 9056, 48 h): 418 ms
QTcF Reading 2 (100 mg, subject 9056, 48 h): 433 ms
QTcF Reading 3 (100 mg, subject 9056, 48 h): 416 ms
Overall ECG result Abnormal, NCS (150 mg (N = 6), 0.5 h): 1 (16.7) n (%)
Overall ECG result Normal (150 mg (N = 6), 0.5 h): 5 (83.3) n (%)
Overall ECG result Abnormal, NCS (150 mg (N = 6), 1 h): 2 (33.3) n (%)
Overall ECG result Normal (150 mg (N = 6), 1 h): 4 (66.7) n (%)
Overall ECG result Abnormal, NCS (150 mg (N = 6), 2 h): 2 (33.3) n (%)
Overall ECG result Normal (150 mg (N = 6), 2 h): 4 (66.7) n (%)
Overall ECG result Abnormal, NCS (150 mg (N = 6), 3 h): 4 (66.7) n (%)
Overall ECG result Normal (150 mg (N = 6), 3 h): 2 (33.3) n (%)
Overall ECG result Abnormal, NCS (150 mg (N = 6), 5 h): 2 (33.3) n (%)
Overall ECG result Normal (150 mg (N = 6), 5 h): 4 (66.7) n (%)
Overall ECG result Abnormal, NCS (150 mg (N = 6), 8 h): 2 (33.3) n (%)
Overall ECG result Normal (150 mg (N = 6), 8 h): 4 (66.7) n (%)
Overall ECG result Abnormal, NCS (150 mg (N = 6), 12 h): 2 (33.3) n (%)
Overall ECG result Normal (150 mg (N = 6), 12 h): 4 (66.7) n (%)
Overall ECG result Abnormal, NCS (150 mg (N = 6), 24 h): 1 (16.7) n (%)
Overall ECG result Normal (150 mg (N = 6), 24 h): 5 (83.3) n (%)
Overall ECG result Abnormal, NCS (150 mg (N = 6), 48 h): 1 (16.7) n (%)
Overall ECG result Normal (150 mg (N = 6), 48 h): 5 (83.3) n (%)
Overall ECG result Abnormal, NCS (150 mg (N = 6), 72 h): 0 n (%)
Overall ECG result Normal (150 mg (N = 6), 72 h): 6 (100) n (%)
Overall ECG result Abnormal, NCS (150 mg (N = 6), Visit 3): 0 n (%)
Overall ECG result Normal (150 mg (N = 6), Visit 3): 6 (100) n (%)
QTcF Average (150 mg, subject 9088, 3 h): 422 ms
QTcF Reading 1 (150 mg, subject 9088, 3 h): 410 ms
QTcF Reading 2 (150 mg, subject 9088, 3 h): 434 ms
QTcF Reading 3 (150 mg, subject 9088, 3 h): 423 ms
QTcF Average (150 mg, subject 9088, 12 h): 430 ms
QTcF Reading 1 (150 mg, subject 9088, 12 h): 434 ms
QTcF Reading 2 (150 mg, subject 9088, 12 h): 427 ms
QTcF Reading 3 (150 mg, subject 9088, 12 h): 429 ms
QTcF Average (150 mg, subject 9099, 3 h): 429 ms
QTcF Reading 1 (150 mg, subject 9099, 3 h): 420 ms
QTcF Reading 2 (150 mg, subject 9099, 3 h): 431 ms
QTcF Reading 3 (150 mg, subject 9099, 3 h): 435 ms
QTcF Average (150 mg, subject 9099, 5 h): 436 ms
QTcF Reading 1 (150 mg, subject 9099, 5 h): 437 ms
QTcF Reading 2 (150 mg, subject 9099, 5 h): 440 ms
QTcF Reading 3 (150 mg, subject 9099, 5 h): 431 ms
Overall ECG result Abnormal, NCS (200 mg (N = 1), 0.5 h): 1 (100) n (%)
Overall ECG result Normal (200 mg (N = 1), 0.5 h): 0 n (%)
Overall ECG result Abnormal, NCS (200 mg (N = 1), 1 h): 1 (100) n (%)
Overall ECG result Normal (200 mg (N = 1), 1 h): 0 n (%)
Overall ECG result Abnormal, NCS (200 mg (N = 1), 2 h): 1 (100) n (%)
Overall ECG result Normal (200 mg (N = 1), 2 h): 0 n (%)
Overall ECG result Abnormal, NCS (200 mg (N = 1), 3 h): 1 (100) n (%)
Overall ECG result Normal (200 mg (N = 1), 3 h): 0 n (%)
Overall ECG result Abnormal, NCS (200 mg (N = 1), 5 h): 1 (100) n (%)
Overall ECG result Normal (200 mg (N = 1), 5 h): 0 n (%)
Overall ECG result Abnormal, NCS (200 mg (N = 1), 8 h): 0 n (%)
Overall ECG result Normal (200 mg (N = 1), 8 h): 1 (100) n (%)
Overall ECG result Abnormal, NCS (200 mg (N = 1), 12 h): 0 n (%)
Overall ECG result Normal (200 mg (N = 1), 12 h): 1 (100) n (%)
Overall ECG result Abnormal, NCS (200 mg (N = 1), 24 h): 1 (100) n (%)
Overall ECG result Normal (200 mg (N = 1), 24 h): 0 n (%)
Overall ECG result Abnormal, NCS (200 mg (N = 1), 48 h): 0 n (%)
Overall ECG result Normal (200 mg (N = 1), 48 h): 1 (100) n (%)
Overall ECG result Abnormal, NCS (200 mg (N = 1), 72 h): 0 n (%)
Overall ECG result Normal (200 mg (N = 1), 72 h): 1 (100) n (%)
Overall ECG result Abnormal, NCS (200 mg (N = 1), Visit 3): 0 n (%)
Overall ECG result Normal (200 mg (N = 1), Visit 3): 1 (100) n (%)
QTcF Average (200 mg, subject 9078, 3 h): 426 ms
QTcF Reading 1 (200 mg, subject 9078, 3 h): 441 ms
QTcF Reading 2 (200 mg, subject 9078, 3 h): 422 ms
QTcF Reading 3 (200 mg, subject 9078, 3 h): 416 ms
ECG abnormal result: QTcF prolongation (SAD 5 mg, 1 h): 1 (16.7) n (%)
ECG abnormal result: QTcF prolongation (SAD 5 mg, 2 h): 2 (33.3) n (%)
ECG abnormal result: QTcF prolongation (SAD 5 mg, 3 h): 1 (16.7) n (%)
ECG abnormal result: QTcF prolongation (SAD 5 mg, 5 h): 2 (33.3) n (%)
ECG abnormal result: QTcF prolongation (SAD 5 mg, total): 3 (50.0) n (%)
ECG abnormal result: QTcF prolongation (SAD 20 mg, total): 0 n (%)
ECG abnormal result: QTcF prolongation (SAD 60 mg, total): 0 n (%)
ECG abnormal result: QTcF prolongation (SAD 100 mg, 0.5 h): 1 (16.7) n (%)
ECG abnormal result: QTcF prolongation (SAD 100 mg, 2 h): 1 (16.7) n (%)
ECG abnormal result: QTcF prolongation (SAD 100 mg, 3 h): 1 (16.7) n (%)
ECG abnormal result: QTcF prolongation (SAD 100 mg, 5 h): 1 (16.7) n (%)
ECG abnormal result: QTcF prolongation (SAD 100 mg, 8 h): 1 (16.7) n (%)
ECG abnormal result: QTcF prolongation (SAD 100 mg, 24 h): 1 (16.7) n (%)
ECG abnormal result: QTcF prolongation (SAD 100 mg, 48 h): 1 (16.7) n (%)
ECG abnormal result: QTcF prolongation (SAD 100 mg, total): 1 (16.7) n (%)
ECG abnormal result: QTcF prolongation (SAD 150 mg, 3 h): 2 (33.3) n (%)
ECG abnormal result: QTcF prolongation (SAD 150 mg, 5 h): 1 (16.7) n (%)
ECG abnormal result: QTcF prolongation (SAD 150 mg, 12 h): 1 (16.7) n (%)
ECG abnormal result: QTcF prolongation (SAD 150 mg, total): 2 (33.3) n (%)
ECG abnormal result: QTcF prolongation (SAD 200 mg (N=1), 3 h): 1 (100) n (%)
ECG abnormal result: QTcF prolongation (SAD 200 mg (N=1), total): 1 (100) n (%)
Dose relation of QTcF prolongation (SAD study): no dose-related effects were observed
Maximum QTcF interval observed (SAD study, Subject 9056): 457 ms

Reference: patent US20180214395A1 (priority 2017, published 2018)
